≈ marks a conversion by molar mass, not a printed value. Numbered stars: 1 amine (or outer) side, 2 acyl side, 3 side chain; on linkers, the order of the positions; unused ones are H or OH. Bridge positions count the residues as written; N and C are the ends. Square brackets hold non-standard residues; d marks the D form. Peptide text beside a SMILES is read from it. * marks the point of attachment. NH(2-ClPh) = Clc1ccccc1N*; Octanoyl = CCCCCCCC(=O)*; Dab = NCC[C@H](N)C(=O)O; CO = O=C([*:1])[*:2]
Tests used:
[1] = system: P. aeruginosa FADDI-PA070, PmxR; settings: MIC P. aeruginosa FADDI-PA070, PmxR (µg/mL)
[2] = system: K. pneumoniae CI Koprana 100650661:1, PmxR; settings: MIC K. pneumoniae CI Koprana 100650661:1, PmxR (µg/mL)
[3] = system: A. baumannii CI Ptyela 100734512:2, PmxR; settings: MIC A. baumannii CI Ptyela 100734512:2, PmxR (µg/mL)
[4] = system: K. pneumoniae ATTC BAA-2146, NDM-1 pos; settings: MIC K. pneumoniae ATTC BAA-2146, NDM-1 pos (µg/mL)
[5] = system: S. aureus ATCC 25923, MSSA; settings: MIC S. aureus ATCC 25923, MSSA (µg/mL)
[6] = system: A. baumannii ATCC 19606; settings: MIC A. baumannii ATCC 19606 (µg/mL)
[7] = system: P. aeruginosa PA9704, PmxR; settings: MIC P. aeruginosa PA9704, PmxR (µg/mL)
[8] = system: K. pneumoniae CI 138-16357-20362, PmxR; settings: MIC K. pneumoniae CI 138-16357-20362, PmxR (µg/mL)
[9] = system: HepG2; settings: CC50 HepG2 (µM)
[10] = system: K. pneumoniae CI Koprana 100650661:1, PmxR; experiment: microbe, parasite or virus in culture; type: cell-based, Klebsiella pneumoniae; settings: carbapenem & polymyxin resistant clinical isolate; MHB, 5 × 10^5 CFU/mL, 18 h at 37 °C
[11] = system: K. pneumoniae CI 138-16357-20362, PmxR; experiment: microbe, parasite or virus in culture; type: cell-based, Klebsiella pneumoniae; settings: carbapenem & polymyxin resistant clinical isolate; MHB, 5 × 10^5 CFU/mL, 18 h at 37 °C
[12] = system: K. pneumoniae ATCC 700603, MDR; settings: MIC K. pneumoniae ATCC 700603, MDR(µg/mL)
[13] = system: E. coli ATCC 25922; settings: MIC E. coli ATCC 25922 (µg/mL)
[14] = system: P. aeruginosa ATCC 27853; settings: MIC P. aeruginosa ATCC 27853 (µg/mL)
[15] = system: K. pneumoniae ATCC 13883; settings: MIC K. pneumoniae ATCC 13883 (µg/mL)
[16] = system: P. aeruginosa FADDI-PA070, PmxR; type: cell-based, Pseudomonas aeruginosa; settings: polymyxin resistant clinical isolate; MHB, 5 × 10^5 CFU/mL, 18 h at 37 °C
Description: (§1) Bacteria were either obtained from American Type Culture Collection (ATCC; Manassas, VA, USA) or independent academic clinical isolate collections, as listed in Table S2. Bacteria were cultured in nutrient broth (NB; Bacto Laboratories, catalog no. 234000) or Muller Hinton broth (MHB; Bacto Laboratories, catalog no. 211443) at 37 °C overnight with shaking (∼180 rpm). A sample of each culture was then diluted 50-fold in fresh MHB and incubated at 37 °C for 1.5–3 h with shaking (∼180 rpm). Compound stock solutions were prepared as 0.64 or 2.56 mg/mL in water. The compounds, at twice the final desired concentration, were serially diluted 2-fold across the wells of 96-well plates (Polystyrene, Corning, catalogue No. 3370). Mid log phase bacterial cultures (after 1.5–3 h incubation) were diluted to a final concentration of 5 × 10^5 colony forming units (CFU)/mL, and 50 μL was added to each well giving a final compound concentration range of 32 μg/mL to 0.015 μg/mL (128–0.06 μg/mL for colistin and polymyxin B against the polymyxin resistant clinical isolates). MICs were determined visually after 18 h of incubation at 37 °C, with the MIC defined as the lowest compound concentration at which no bacterial growth was visible.
(§2) Table S2. Bacterial strains used for Minimum Inhibitory Concentration (MIC) […]
(§3) Organism Strain Strain description Strain Source
(§4) Escherichia coli ATCC 25922 FDA strain Seattle 1946 ATCC
(§5) Klebsiella pneumoniae ATCC 13883 Control strain ATCC
(§6) Klebsiella pneumoniae ATCC 700603 Multi-drug resistant ATCC
(§7) Klebsiella pneumoniae BAA-2146 Metallo-beta-lactamase- ATCC
(§8) Acinetobacter baumannii ATCC 19606 Type strain ATCC
(§9) Pseudomonas aeruginosa ATCC 27853 Type strain ATCC
(§10) Pseudomonas aeruginosa FADDI-PA070 Clinical isolate, Nation and Li labs, polymyxin resistant Monash University
(§11) Clinical isolate, Wang Hengzhuang, Pseudomonas aeruginosa PA9704 polymyxin resistant University Hospital of […]
(§12) Ptyela Clinical isolate, Ilias Karaiskos and Acinetobacter baumannii Carbapenem & Helen Giamarellou
(§13) Clinical isolate, Medicine, Hygeia
(§14) Klebsiella pneumoniae Koprana Carbapenem, & General Hospital, […]
(§15) Clinical isolate, (Instituto Dante […]
(§16) polymyxin resistant Cardiologia, São […]

[17] = system: P. aeruginosa PA9704, PmxR; type: cell-based, Pseudomonas aeruginosa; settings: polymyxin resistant clinical isolate; MHB, 5 × 10^5 CFU/mL, 18 h at 37 °C
Description: as §1, §2, §3, §4, §5, §6, §7, §8, §9, §10, §11, §12, §13, §14, §15, §16

[18] = system: A. baumannii ATCC 19606; type: cell-based, Acinetobacter baumannii; settings: ATCC 19606, 18 h
Description: as §1, §2, §3, §4, §5, §6, §7, §8, §9, §10, §11, §12, §13, §14, §15, §16

[19] = system: K. pneumoniae ATCC 13883; experiment: microbe, parasite or virus in culture; type: cell-based, Klebsiella pneumoniae; settings: ATCC 13883, 18 h
[20] = system: A. baumannii CI Ptyela 100734512:2, PmxR; experiment: microbe, parasite or virus in culture; type: cell-based, Acinetobacter baumannii; settings: carbapenem & polymyxin resistant clinical isolate; MHB, 5 × 10^5 CFU/mL, 18 h at 37 °C
Description: as §1, §2, §3, §4, §5, §6, §7, §8, §9, §10, §11, §12, §13, §14, §15, §16

[21] = system: HepG2 cells; experiment: Cytotoxicity assay (resazurin assay); type: cell-based, human; settings: 4000 cells/well, 24 h incubation with compound, fluorescence 560/590
Description: Cytotoxicity to HEK293 and HepG2 cells was determined using the resazurin assay.[67],[68] […] Compounds were then added into each well. After 24 h incubation, 5 μM resazurin was added per well and incubated at 37 °C for 2 h. Fluorescence intensity was then read using a Polarstar Omega with excitation/emission 560/590. The data were then analyzed using GraphPad Prism 6 software. CC50 values were determined using GraphPad Prism 6 software (Inc. La Jolla, CA).

[22] = system: E. coli ATCC 25922; experiment: microbe, parasite or virus in culture; type: cell-based, Escherichia coli; settings: ATCC 25922, 18 h
Description: as §1, §2, §3, §4, §5, §6, §7, §8, §9, §10, §11, §12, §13, §14, §15, §16

[23] = system: P. aeruginosa ATCC 27853; experiment: microbe, parasite or virus in culture; type: cell-based, Pseudomonas aeruginosa; settings: ATCC 27853, 18 h
Description: as §1, §2, §3, §4, §5, §6, §7, §8, §9, §10, §11, §12, §13, §14, §15, §16

[24] = system: S. aureus ATCC 25923, MSSA; experiment: microbe, parasite or virus in culture; type: cell-based, Staphylococcus aureus
Description: as §1, §2, §3, §4, §5, §6, §7, §8, §9, §10, §11, §12, §13, §14, §15, §16

Structure (SMILES) | MIC [1] [µg/mL] | MIC [2] [µg/mL] | MIC [3] [µg/mL] | MIC [4] [µg/mL] | MIC [5] [µg/mL] | MIC [6] [µg/mL] | MIC [7] [µg/mL] | MIC [8] [µg/mL] | CC50 [9] [µM] | MIC K. pneumoniae CI Koprana 100650661:1, PmxR [10] [µg/mL] | MIC K. pneumoniae CI 138-16357-20362, PmxR [11] [µg/mL] | MIC P. aeruginosa FADDI-PA070, PmxR [16] [µg/mL] | MIC A. baumannii CI Ptyela 100734512:2, PmxR [20] [µg/mL] | HepG2 - CC50 [21] [µM] | further results
CC(C)C[C@@H]1NC(=O)[C@@H](Cc2ccccc2)NC(=O)[C@H](CCN)NC(=O)[C@@H](NC(=O)[C@@H](CO)NC(=O)[C@@H](NC(=O)[C@H](CCN)NC(=O)Nc2ccccc2Cl)[C@@H](C)O)CCNC(=O)[C@H]([C@@H](C)O)NC(=O)[C@H](CCN)NC(=O)[C@H](CCN)NC1=O [Compound 17] ({NH(2-ClPh)-CO}-[Dab]T[dS][Dab][Dab][dF]L[Dab][Dab]T; lactam 4-C) | > 32 | > 32 | > 32 | > 32 | > 32 | > 32 | > 32 | > 32 | > 300 | >32 | >32 | – | – | – | –
CCCCCCCC(=O)N[C@H](C(=O)NCC(=O)N[C@H]1CCNC(=O)[C@H]([C@@H](C)O)NC(=O)[C@H](CCN)NC(=O)[C@H](CCN)NC(=O)[C@H](CC(C)C)NC(=O)[C@@H](Cc2ccccc2)NC(=O)[C@H](CCN)NC1=O)[C@@H](C)O [Compound 39] (Octanoyl-TG[Dab][Dab][dF]L[Dab][Dab]T; lactam 3-C) | > 32 | > 32 | > 32 | > 32 | > 32 | > 32 | > 32 | > 32 | > 300 | >32 | >32 | >32 | >32 | >300 | MIC [12]: > 32 µg/mL; MIC [13]: 4 µg/mL (≈ 3.82 µM); MIC [14]: 16 µg/mL (≈ 15.3 µM); MIC [15]: > 32 µg/mL; MIC P. aeruginosa PA9704, PmxR [17]: >32 µg/mL; MIC A. baumannii ATCC 19606 [18]: >32 µg/mL; MIC K. pneumoniae ATCC 13883 [19]: >32 µg/mL; MIC E. coli ATCC 25922 [22]: 4 µg/mL (≈ 3.82 µM); MIC P. aeruginosa ATCC 27853 [23]: 16 µg/mL (≈ 15.3 µM); MIC S. aureus ATCC 25923, MSSA ([24]; ATCC 25923, 18 h): >32 µg/mL
CCCCCCCC(=O)N[C@@H](CCN)C(=O)N[C@H](C(=O)N[C@@H](CCN)C(=O)N[C@H]1CCNC(=O)[C@H]([C@@H](C)O)NC(=O)[C@H](CCN)NC(=O)[C@H](CCN)NC(=O)[C@H](CC(C)C)NC(=O)[C@@H](Cc2ccccc2)NC(=O)[C@H](CCN)NC1=O)[C@@H](C)O [Compound 11, polymyxin B3] (Octanoyl-[Dab]T[Dab][Dab][Dab][dF]L[Dab][Dab]T; lactam 4-C) | > 32 | > 128 | > 64 | – | > 128 | – | > 128 | > 128 | > 300 | >128 | >128 | >32 | >64 | >300 | MIC S. aureus ATCC 25923, MSSA ([24]; MHB, 5 × 10^5 CFU/mL, read visually after 18 h at 37 °C): >128 µg/mL

Reference: PMC4774972, “Activity and Predicted Nephrotoxicity of Synthetic Antibiotics Based on Polymyxin B” (Journal of Medicinal Chemistry, 2016)
